Literature values, collected in PubChem BioAssay AID1259409 (Chemical Carcinogenesis Research Information System (CCRIS), 2018).

Tested on: rodent chemically induced tumor inhibition, incidence and multiplicity
Test: CCRIS tumor inhibitor studies
Conditions: Route [Inhibitor]: ORAL

S=C=NCCc1ccccc1
tumour outcome (control, treated, inhibition, significance) (Carcinogen: N-NITROSOBIS(2-OXOPROPYL)AMINE [60599-38-4], Dose [Inhibitor]: 3 UMOL IN DIET FOR 49 WK BEGINNING 2 WK POST LAST CARCINOGEN DOSE (STUDY DURATION: 52 WK), Species: HAMSTER, Strain/Sex: SYRIAN/FEMALE, Target Tissue: Type of Lesion: LUNG: ADENOCARCINOMA, Dose [Carcinogen]: 20 MG/KG BW 1X/WK FOR 2 WK (STUDY DURATION: 52 WK), Promoter: NONE): 14/25 (56.0%), 12/28 (42.9%), 23%, not significant
tumour outcome (control, treated, inhibition, significance) (Carcinogen: N-NITROSOBIS(2-OXOPROPYL)AMINE [60599-38-4], Dose [Inhibitor]: 3 UMOL IN DIET FOR 49 WK BEGINNING 2 WK POST LAST CARCINOGEN DOSE (STUDY DURATION: 52 WK), Species: HAMSTER, Strain/Sex: SYRIAN/FEMALE, Target Tissue: Type of Lesion: LUNG: ADENOMA, Dose [Carcinogen]: 20 MG/KG BW 1X/WK FOR 2 WK (STUDY DURATION: 52 WK), Promoter: NONE): 20/25 (88.0%), 26/28 (92.9%), -6%, not significant
tumour outcome (control, treated, inhibition, significance) (Carcinogen: N-NITROSOBIS(2-OXOPROPYL)AMINE [60599-38-4], Dose [Inhibitor]: 3 UMOL IN DIET FOR 49 WK BEGINNING 2 WK POST LAST CARCINOGEN DOSE (STUDY DURATION: 52 WK), Species: HAMSTER, Strain/Sex: SYRIAN/FEMALE, Target Tissue: Type of Lesion: PANCREAS: ADENOCARCINOMA, Dose [Carcinogen]: 20 MG/KG BW 1X/WK FOR 2 WK (STUDY DURATION: 52 WK), Promoter: NONE): 20/25 (80.0%), 22/28 (78.6%), 2%, not significant
tumour outcome (control, treated, inhibition, significance) (Carcinogen: N-NITROSOBIS(2-OXOPROPYL)AMINE [60599-38-4], Dose [Inhibitor]: 6 UMOL IN DIET FOR 49 WK BEGINNING 2 WK POST LAST CARCINOGEN DOSE (STUDY DURATION: 52 WK), Species: HAMSTER, Strain/Sex: SYRIAN/FEMALE, Target Tissue: Type of Lesion: LIVER: HEPATOCELLULAR ADENOMA, Dose [Carcinogen]: 20 MG/KG BW 1X/WK FOR 2 WK (STUDY DURATION: 52 WK), Promoter: NONE): 18/25 (72.0%), 16/28 (57.1%), 21%, not significant
tumour outcome (control, treated, inhibition, significance) (Carcinogen: N-NITROSOBIS(2-OXOPROPYL)AMINE [60599-38-4], Dose [Inhibitor]: 6 UMOL IN DIET FOR 49 WK BEGINNING 2 WK POST LAST CARCINOGEN DOSE (STUDY DURATION: 52 WK), Species: HAMSTER, Strain/Sex: SYRIAN/FEMALE, Target Tissue: Type of Lesion: LUNG: ADENOCARCINOMA, Dose [Carcinogen]: 20 MG/KG BW 1X/WK FOR 2 WK (STUDY DURATION: 52 WK), Promoter: NONE): 14/25 (56.0%), 11/28 (39.3%), 30%, not significant
tumour outcome (control, treated, inhibition, significance) (Carcinogen: N-NITROSOBIS(2-OXOPROPYL)AMINE [60599-38-4], Dose [Inhibitor]: 6 UMOL IN DIET FOR 49 WK BEGINNING 2 WK POST LAST CARCINOGEN DOSE (STUDY DURATION: 52 WK), Species: HAMSTER, Strain/Sex: SYRIAN/FEMALE, Target Tissue: Type of Lesion: LUNG: ADENOMA, Dose [Carcinogen]: 20 MG/KG BW 1X/WK FOR 2 WK (STUDY DURATION: 52 WK), Promoter: NONE): 20/25 (88.0%), 24/28 (85.7%), 3%, not significant
tumour outcome (control, treated, inhibition, significance) (Carcinogen: N-NITROSOBIS(2-OXOPROPYL)AMINE [60599-38-4], Dose [Inhibitor]: 6 UMOL IN DIET FOR 49 WK BEGINNING 2 WK POST LAST CARCINOGEN DOSE (STUDY DURATION: 52 WK), Species: HAMSTER, Strain/Sex: SYRIAN/FEMALE, Target Tissue: Type of Lesion: PANCREAS: ADENOCARCINOMA, Dose [Carcinogen]: 20 MG/KG BW 1X/WK FOR 2 WK (STUDY DURATION: 52 WK), Promoter: NONE): 20/25 (80.0%), 25/28 (89.3%), -12%, not significant
tumour outcome (control, treated, inhibition, significance) (Carcinogen: N-NITROSOMETHYLBENZYLAMINE, 937-40-6, Dose [Inhibitor]: 0, 0.325 UMOL/G OF DIET FOR 25 WK BEGINNING 2 WK PRIOR TO CARCINOGEN TREATMENT (STUDY DURATION: 25 WK), Species: RAT, Strain/Sex: F344/MALE, Target Tissue: Type of Lesion: ESOPHAGUS: TUMORS, Dose [Carcinogen]: 0.5 MG/KG 1/WK FOR 15 WK, Promoter: NONE USED): 100%, 100%, 0%, not significant
tumour outcome (control, treated, inhibition, significance) (Carcinogen: N-NITROSOMETHYLBENZYLAMINE, 937-40-6, Dose [Inhibitor]: 0, 0.4 UMOL/G IN DIET FOR 25 WK BEGINNING 2 WK PRIOR TO CARCINOGEN TREATMENT (STUDY DURATION: 25 WK), Species: RAT, Strain/Sex: F344/MALE, Target Tissue: Type of Lesion: ESOPHAGUS: TUMOR, Dose [Carcinogen]: 0.5 MG/KG BW IN 20% DMSO 1/WK FOR 15 WK, Promoter: NONE USED): 100%, 57%, 43%, not significant
tumour outcome (control, treated, inhibition, significance) (Carcinogen: N-NITROSOMETHYLBENZYLAMINE, 937-40-6, Dose [Inhibitor]: 0, 0.75 UMOL/G OF DIET FOR 25 WK BEGINNING 2 WK PRIOR TO CARCINOGEN TREATMENT (STUDY DURATION: 25 WK), Species: RAT, Strain/Sex: F344/MALE, Target Tissue: Type of Lesion: ESOPHAGUS: TUMORS, Dose [Carcinogen]: 0.5 MG/KG 1/WK FOR 15 WK, Promoter: NONE USED): 100%, 100%, 0%, not significant
tumour outcome (control, treated, inhibition, significance) (Carcinogen: N-NITROSOMETHYLBENZYLAMINE, 937-40-6, Dose [Inhibitor]: 0, 1 UMOL/G IN DIET FOR 25 WK BEGINNING 2 WK PRIOR TO CARCINOGEN TREATMENT (STUDY DURATION: 25 WK), Species: RAT, Strain/Sex: F344/MALE, Target Tissue: Type of Lesion: ESOPHAGUS: TUMOR, Dose [Carcinogen]: 0.5 MG/KG BW IN 20% DMSO 1/WK FOR 15 WK, Promoter: NONE USED): 100%, 40%, 60%, p<0.05
tumour outcome (control, treated, inhibition, significance) (Carcinogen: N-NITROSOMETHYLBENZYLAMINE, 937-40-6, Dose [Inhibitor]: 0, 1.5 UMOL/G OF DIET FOR 25 WK BEGINNING 2 WK PRIOR TO CARCINOGEN TREATMENT (STUDY DURATION: 25 WK), Species: RAT, Strain/Sex: F344/MALE, Target Tissue: Type of Lesion: ESOPHAGUS: TUMORS, Dose [Carcinogen]: 0.5 MG/KG 1/WK FOR 15 WK, Promoter: NONE USED): 100%, 60%, 40%, p<0.01
tumour outcome (control, treated, inhibition, significance) (Carcinogen: N-NITROSOMETHYLBENZYLAMINE, 937-40-6, Dose [Inhibitor]: 0, 2.5 UMOL/G IN DIET FOR 25 WK BEGINNING 2 WK PRIOR TO CARCINOGEN TREATMENT (STUDY DURATION: 25 WK), Species: RAT, Strain/Sex: F344/MALE, Target Tissue: Type of Lesion: ESOPHAGUS: TUMOR, Dose [Carcinogen]: 0.5 MG/KG BW IN 20% DMSO 1/WK FOR 15 WK, Promoter: NONE USED): 100%, 7%, 93%, p<0.05
tumour outcome (control, treated, inhibition, significance) (Carcinogen: N-NITROSOMETHYLBENZYLAMINE, 937-40-6, Dose [Inhibitor]: 0, 3 UMOL/G OF DIET FOR 25 WK BEGINNING 2 WK PRIOR TO CARCINOGEN TREATMENT (STUDY DURATION: 25 WK), Species: RAT, Strain/Sex: F344/MALE, Target Tissue: Type of Lesion: ESOPHAGUS: TUMORS, Dose [Carcinogen]: 0.5 MG/KG 1/WK FOR 15 WK, Promoter: NONE USED): 100%, 0%, 100%, p<0.01
tumour outcome (control, treated, inhibition, significance) (Carcinogen: N-NITROSOMETHYLBENZYLAMINE, 937-40-6, Dose [Inhibitor]: 0, 500 PPM IN DIET FOR DURATION OF STUDY BEGINNING 1 WK POST CARCINOGEN TREATMENT (STUDY DURATION: 25 WK), Species: RAT, Strain/Sex: F344/MALE, Target Tissue: Type of Lesion: ESOPHAGUS: TUMOR, Dose [Carcinogen]: 1 MG/KG 3/WK FOR 5 WK, Promoter: NONE USED): 15/15 (100%), 14/15 (93%), 7%, not significant
tumour outcome (control, treated, inhibition, significance) (Carcinogen: N-NITROSOMETHYLBENZYLAMINE, 937-40-6, Dose [Inhibitor]: 0, 500 PPM IN DIET FOR DURATION OF STUDY BEGINNING 2 WK PRIOR TO CARCINOGEN TREATMENT (STUDY DURATION: 25 WK), Species: RAT, Strain/Sex: F344/MALE, Target Tissue: Type of Lesion: ESOPHAGUS: TUMOR, Dose [Carcinogen]: 1 MG/KG 3/WK FOR 5 WK, Promoter: NONE USED): 15/15 (100%), 7/15 (47%), 53%, p<0.01
